Where a SMILES comes first, the peptide text is derived from it. [ ]: non-standard residue; d: D form. Phe(4-CN) = N#Cc1ccc(C[C@H](N)C(=O)O)cc1
The compounds below were run against interaction between GST-MAGEA11 MHD and FAM-PCF11_4 peptide (MAGE-A11:PCF11) (Homo sapiens (Human), UniProt P43364) (assay: TR-FRET dose response competition assay for disruption of MAGE-A11:PCF11 binding). Conditions: Dose response TR-FRET screening of nine scaffold groups against MAGE-A11:PCF11; read-out: consensus IC50.
Sequence of interaction between GST-MAGEA11 MHD and FAM-PCF11_4 peptide (MAGE-A11:PCF11) (P43364 218-429): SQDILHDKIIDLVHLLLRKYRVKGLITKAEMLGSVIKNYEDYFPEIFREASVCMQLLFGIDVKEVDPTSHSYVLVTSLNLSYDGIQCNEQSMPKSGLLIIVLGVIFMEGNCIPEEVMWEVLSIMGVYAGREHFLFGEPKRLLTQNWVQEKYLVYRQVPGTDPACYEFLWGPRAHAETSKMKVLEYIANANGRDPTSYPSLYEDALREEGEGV
Summary of the method: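 Competition TR-FRET at room temperature in 50 mM Tris pH 7.5, 20 mM MgCl2, 0.1 mg/ml BSA, 1 mM DTT: final 5 nM GST-MAGEA11 MHD, 5 nM Tb-anti-GST, 200 nM FAM-PCF11_4, 90 min. Ratio 520/490 nm converted to % inhibition; IC50 from sigmoidal fit.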
In the case of `O=C(CNC(=O)c1ccc2[nH]c3ccccc3c2c1)NCCO` [SJ000031064-1], the IC50 is reported as 69.9 µM.
Compound `O=C1C(Cl)=C(Nc2cccc(C(F)(F)F)c2)C(=O)c2ccccc21` [SJ000024924-2] has an IC50 of 69.9 µM.
`N#CCCn1cnc2cc(-c3ccc(Br)cc3)sc2c1=O` [SJ000397713-1] gave an IC50 of 69.9 µM.
With `CN(C)c1ccc(C2Nc3ccccc3C(=O)N2CCCN2CCOCC2)cc1` (stereo not drawn) [SJ000803767-1] the IC50 was 71.1 µM.
With `COc1cccc(CNCCCNc2ccnc3cc(-c4ccc(F)cc4)ccc23)c1O` [SJ000311239-1] the IC50 was 33.3 µM.
`CC(=O)Nc1ccc(S(=O)(=O)N2CCN(C3=C(Cl)C(=O)c4ccccc4C3=O)CC2)cc1` [SJ000036320-1] was tested, and the IC50 was 69.9 µM.
`FC(F)(F)c1ccc2c(NCCCNCc3ccc4[nH]ccc4c3)ccnc2c1` [SJ000521054-1] was tested, and the IC50 was 0.397 µM.
In the case of `CCCn1c(-c2ccc(SC)cc2)nc2c1c(=O)[nH]c(=O)n2Cc1ccccc1` [SJ000381119-1], the IC50 is reported as 69.9 µM.
With `c1cc(CNCCCNc2ccnc3cc(C4CCCCC4)ccc23)c2c(c1)OCO2` [SJ000311264-1] the IC50 was 23.7 µM.
For `NC1=C(Nc2ccc(Br)cc2)C(=O)c2ccccc2C1=O` [SJ000032713-1], the IC50 was 69.9 µM.
Compound `CCOc1ccc(-c2nc(C#N)c(N3CCOCC3)o2)cc1` [SJ000041896-1] has an IC50 of 69.9 µM.
With `CCCN1C(=O)c2ccccc2NC1c1ccc(OC)c(COc2ccc([N+](=O)[O-])c(C)c2)c1` (stereo not drawn) [SJ000295745-1] the IC50 was 69.9 µM.
Work on `C=CCOc1ccc(-c2nc3c(c(=O)[nH]c(=O)n3Cc3ccccc3)n2CCC)cc1Br` [SJ000379301-1] yielded an IC50 of 69.9 µM.
`Cc1ccc(S(=O)(=O)c2nc(-c3ccc(Br)cc3)oc2N2CCOCC2)cc1` [SJ000230855-1] was tested, and the IC50 was 69.9 µM.
`COc1cccc(CNCCCNc2ccnc3cc(CC(C)C)ccc23)c1O` [SJ000311259-1] showed an IC50 of 68.5 µM.
`COc1ccc(CN2C(=O)c3ccccc3NC2c2ccc(C)cc2)cc1` (stereo not drawn) [SJ000510741-1] gave an IC50 of 69.9 µM.
Compound `COc1ccccc1CNC(=O)Cn1cnc2cc(-c3ccccc3)sc2c1=O` [SJ000452125-1] has an IC50 of 69.9 µM.
In the case of `O=S(=O)(c1ccc(Cl)cc1)c1nc(-c2ccccc2Cl)oc1N1CCOCC1` [SJ000141574-1], the IC50 is reported as 69.9 µM.
In the case of `CC(=O)N(C)C1=C(Cl)C(=O)c2ccccc2C1=O` [SJ000290718-2], the IC50 is reported as 69.9 µM.
With `O=C(Cn1cnc2cc(-c3ccccc3)sc2c1=O)NCc1ccccc1OC(F)(F)F` [SJ000456118-1] the IC50 was 69.9 µM.
With `NC1=C(N2CCCCC2)C(=O)c2ccccc2C1=O` [SJ000294373-2] the IC50 was 20.1 µM.
`CCCCCn1c(-c2cccc(OC)c2)nc2c1c(=O)[nH]c(=O)n2CCCC` [SJ000451928-1] was tested, and the IC50 was 69.9 µM.
With `Fc1cccc(C(F)(F)F)c1CNCCCNc1ccnc2cc(C(F)(F)F)ccc12` [SJ000521059-1] the IC50 was 69.9 µM.
`CC(C)Cn1c(-c2cc([N+](=O)[O-])ccc2Cl)nc2c1c(=O)[nH]c(=O)n2Cc1ccccc1` [SJ000390112-1] showed an IC50 of 69.9 µM.
With `COc1cccc(CNCCCNc2ccnc3cc(Cc4ccc(C#N)cc4)ccc23)c1O` [SJ000311303-1] the IC50 was 51 µM.
Compound `CCCN1C(=O)c2ccccc2NC1c1ccc(OC)c(COc2ccc([N+](=O)[O-])cc2)c1` (stereo not drawn) [SJ000288430-1] has an IC50 of 69.9 µM.
`COc1ccc(C(F)(F)F)cc1CNCCCNc1ccnc2cc(Cl)ccc12` [SJ000521036-1] showed an IC50 of 69.9 µM.
Work on `CCCN1C(=O)c2ccccc2NC1c1ccc(O)c(OCC)c1` (stereo not drawn) [SJ000019510-1] yielded an IC50 of 69.9 µM.
Compound `O=C(NCCO)c1ccc2[nH]c3ccccc3c2c1` [SJ000031065-1] has an IC50 of 69.9 µM.
`CCCn1c(-c2ccc(C(C)(C)C)cc2)nc2c1c(=O)[nH]c(=O)n2Cc1ccccc1` [SJ000375920-1] showed an IC50 of 69.9 µM.
For `COc1ccc(CN2C(=O)c3ccccc3NC2c2ccc([N+](=O)[O-])cc2)cc1` (stereo not drawn) [SJ000510745-1], the IC50 was 69.9 µM.
For `CCCCOC(=O)c1ccc(NC2=C(Cl)C(=O)c3ccccc3C2=O)cc1` [SJ000024923-1], the IC50 was 69.9 µM.
`COC(=O)c1ccc(NC2=C(Cl)C(=O)c3ccccc3C2=O)cc1` [SJ000299646-1] showed an IC50 of 69.9 µM.
`COc1ccc(F)cc1CNCCCNc1ccnc2cc(-c3cccc4ccccc34)ccc12` [SJ000311277-1] gave an IC50 of 10.3 µM.
`COc1ccc(C2Nc3ccccc3C(=O)N2Cc2ccccc2)cc1COc1ccccc1F` (stereo not drawn) [SJ000295328-2] showed an IC50 of 69.9 µM.
`Clc1ccc2c(NCCCNCc3ccc4[nH]ccc4c3)ccnc2c1` [SJ000520909-2] gave an IC50 of 67.1 µM.
`Cc1ccc(S(=O)(=O)c2nc(-c3ccccc3Br)oc2N2CCOCC2)cc1` [SJ000185415-1] was tested, and the IC50 was 69.9 µM.
With `COc1cccc(CNCCCNc2ccnc3cc(C4CCCCC4)ccc23)c1O` [SJ000311263-1] the IC50 was 32.4 µM.
For `CCCN1C(=O)c2ccccc2NC1c1cc(Cl)c(O)c(OC)c1` (stereo not drawn) [SJ000414199-1], the IC50 was 69.9 µM.
In the case of `O=C1c2ccccc2NC(c2ccc([N+](=O)[O-])cc2)N1Cc1ccccc1` (stereo not drawn) [SJ000051049-1], the IC50 is reported as 69.9 µM.
For `COc1cc(Cc2ccc3c(NCCCNCc4cccc(OC)c4O)ccnc3c2)cc(OC)c1` [SJ000311311-1], the IC50 was 33.6 µM.
Compound `Cn1c2ccccc2c2cc(C(=O)N3CCc4nncn4CC3)ccc21` [SJ000307416-1] has an IC50 of 69.9 µM.
With `Fc1ccc(Cc2ccc3c(NCCCNCc4cccc5c4OCO5)ccnc3c2)c(Cl)c1` [SJ000311324-1] the IC50 was 20.6 µM.
`COc1ccc(C2Nc3ccccc3C(=O)N2Cc2ccccc2)cc1Cn1nc(C)c([N+](=O)[O-])c1C` (stereo not drawn) [SJ000288419-1] was tested, and the IC50 was 69.9 µM.
For `CN(C)C(=O)Cn1cnc2cc(-c3ccccc3)sc2c1=O` [SJ000425603-1], the IC50 was 69.9 µM.
`FC(F)(F)c1ccc2c(NCCCNCc3ccccc3C(F)(F)F)ccnc2c1` [SJ000521049-1] was tested, and the IC50 was 69.9 µM.
With `COc1ccc(-c2nc(S(=O)(=O)c3ccc(C)cc3)c(N3CCOCC3)o2)cc1` [SJ000245271-1] the IC50 was 69.9 µM.
Compound `O=c1c2sc(-c3ccccc3)cc2nc(SCCO)n1CCN1CCOCC1` [SJ000452798-1] has an IC50 of 69.9 µM.
With `COc1ccc(F)cc1CNCCCNc1ccnc2cc(Cl)ccc12` [SJ000000500-3] the IC50 was 69.9 µM.
`COc1ccc(F)cc1CNCCCNc1ccnc2cc(Oc3cccc(N(C)C)c3)ccc12` [SJ000311233-1] was tested, and the IC50 was 5.63 µM.
For `COCCn1c(-c2cccc(C)c2)nc2c1c(=O)[nH]c(=O)n2CC(C)C` [SJ000426389-1], the IC50 was 69.9 µM.
For `COc1ccc(-c2cc3ncn(CC(=O)NCc4ccc(F)cc4)c(=O)c3s2)cc1` [SJ000443969-1], the IC50 was 69.9 µM.
For `NC1=C(Nc2cccc3ccccc23)C(=O)c2ccccc2C1=O` [SJ000300361-1], the IC50 was 69.9 µM.

Same assay, conditions: PCF11 peptides; read-out: IC50 of PCF11 peptides binding to GST-MAGE-A11 by TR-FRET
For `CC[C@H](C)[C@H](NC(=O)[C@H](CCC(N)=O)NC(=O)[C@H](Cc1c[nH]cn1)NC(=O)[C@@H](NC(=O)[C@@H](NC(=O)[C@@H](NC(=O)[C@H](CC(C)C)NC(=O)[C@@H](N)Cc1ccccc1)C(C)C)C(C)C)C(C)C)C(=O)N[C@@H](CCCNC(=N)N)C(=O)N[C@@H](CCC(N)=O)C(=O)N[C@@H](CC(C)C)C(=O)N[C@@H](Cc1ccc(C#N)cc1)C(=O)N[C@@H](CCC(N)=O)C(=O)O` [4-cyano-phenylalaninnne] (H-FLVVVHQIRQL[Phe(4-CN)]Q-OH; N-terminus and C-terminus assumed), the IC50 was 0.663 µM.

Same assay, conditions: Table 5, dose response TR-FRET screening of 59 quinoline compounds against MAGE-A11:PCF11; read-out: TR-FRET IC50
In the case of `Clc1ccc(CN(CCCCNc2ccnc3cc(Cl)ccc23)Cc2ccccc2)c(Cl)c1` [SJ000361207-2], the IC50 is reported as greater than 70 µM.
`CCCN(CCCNc1ccnc2cc(C(F)(F)F)ccc12)Cc1ccc2[nH]ccc2c1` [SJ000575171-1] showed an IC50 of 33.2 µM.
`CCCCCCNCCCNc1ccnc2cc(C(F)(F)F)ccc12` [SJ000361124-1] was tested, and the IC50 was 57.6 µM.
For `FC(F)(F)Oc1cccc(CN(CCCCNc2ccnc3cc(Cl)ccc23)Cc2ccccc2)c1` [SJ000520457-1], the IC50 was greater than 70 µM.
With `CCCN(CCCNc1ccnc2cc(Cl)ccc12)Cc1ccc2[nH]ccc2c1` [SJ000522746-2] the IC50 was 2.8 µM.

Same assay, conditions: Table 6, 4-aminoquinoline compounds; read-out: TR-FRET, IC50
Compound `FC(F)(F)c1ccc(-c2ccc3c(NCCCNCc4cccc5c4OCO5)ccnc3c2)cc1` [SJ000311280-01] has an IC50 of 4.07 µM.

Same assay, conditions: Table 8, representative compounds; read-out: TR-FRET IC50
`COc1ccccc1Oc1ccc2c(NCCCNCc3cccc4c3OCO4)ccnc2c1` [SJ000311212] gave an IC50 of 69.9 µM.
`COc1ccc(C(F)(F)F)cc1CNCCCNc1ccnc2cc(Cl)ccc12` [SJ000521036] was tested, and the IC50 was 69.9 µM.
For `Clc1ccc2c(NCCCNCc3c4ccccc4cc4ccccc34)ccnc2c1` [SJ000361122], the IC50 was 69.9 µM.
Work on `COc1ccc(F)cc1CNCCCNc1ccnc2cc(Oc3cccc(N(C)C)c3)ccc12` [SJ000311233] yielded an IC50 of 5.63 µM.
For `Nc1c2ccccc2nc2ccccc12` [SJ000285450], the IC50 was greater than 75.5 µM.
`CCC(CC)c1ccc2c(NCCCNCc3cccc(OC)c3O)ccnc2c1` [SJ000311267] was tested, and the IC50 was 9.95 µM.
With `COc1ccc(F)cc1CNCCCNc1ccnc2cc(-c3cc(C(F)(F)F)cc(C(F)(F)F)c3)ccc12` [SJ000311273] the IC50 was 7.69 µM.
`c1ccc(CCc2ccc3c(NCCCNCc4cccc5c4OCO5)ccnc3c2)cc1` [SJ000311257] was tested, and the IC50 was 62.3 µM.
`CC(C)(C)c1ccc(Oc2ccc3c(NCCCNCc4cccc5c4OCO5)ccnc3c2)cc1` [SJ000311236] gave an IC50 of 8.67 µM.
With `c1cc(CNCCCNc2ccnc3cc(CC4CCCC4)ccc23)c2c(c1)OCO2` [SJ000311252] the IC50 was 16 µM.
In the case of `FC(F)(F)c1ccccc1CNCCCNc1ccnc2cc(Cl)ccc12` [SJ000520908], the IC50 is reported as 69.9 µM.
In the case of `COc1ccc(F)cc1CNCCCNc1ccnc2cc(Cc3cc(C)cc(C)c3)ccc12` [SJ000311321], the IC50 is reported as 9.04 µM.
For `COc1ccc(F)cc1CNCCCNc1ccnc2cc(C(F)(F)F)ccc12` [SJ000521052], the IC50 was 69.9 µM.
`CN(C)c1cccc(Oc2ccc3c(NCCCNCc4cccc5c4OCO5)ccnc3c2)c1` [SJ000311232] showed an IC50 of 69.9 µM.
With `COc1ccc(Oc2ccc3c(NCCCNCc4cc(F)ccc4OC)ccnc3c2)cc1` [SJ000311221] the IC50 was 46.5 µM.
`FC(F)(F)c1ccc(-c2ccc3c(NCCCNCc4cccc5c4OCO5)ccnc3c2)cc1` [SJ000311280-01] gave an IC50 of 15.7 µM.
With `CC(C)(C)c1ccc(-c2ccc3c(NCCCNCc4cccc5c4OCO5)ccnc3c2)cc1` [SJ000311288] the IC50 was 6.87 µM.

Same assay, conditions: read-out: IC50 by TR-FRET for disrupting MAGE-A11:PCF11 interaction
In the case of `FC(F)(F)c1ccc(-c2ccc3c(NCCCNCc4cccc5c4OCO5)ccnc3c2)cc1` [SJ000311280-01], the IC50 is reported as 4.07 µM.

Source: patent US20240246941A1, “SUBSTITUTED 4-(3-AMINOPROP-1-YL)AMINOQUINOLINE ANALOGS AS MODULATORS OF MELANOMA-ASSOCIATED ANTIGEN 11 UBIQUITIN LIGASE” (ST. JUDE CHILDREN'S RESEARCH HOSPITAL, INC., priority 2020, published 2024)
